Data: patent US20090076571A1, “MRI-Guided Photodynamic Therapy For Cancer” (priority 2004, published 2009)

Tests used:
[1] = T1 relaxivity of polymer complexes; type: physicochemical; details: Siemens Trio 3T scanner, inversion recovery sequence
[2] = tested on: MDA-MB-231 human breast carcinoma xenograft tumor; assay: Contrast-enhanced MR imaging of tumor-bearing mice after injection of polymer conjugates; type: in vivo, female athymic nu/nu mice; details: for Contrast in all tissues including tumor, heart and liver compared to pre-contrast: 5 minutes post injection; for Increase in signal intensity of tumor as compared to precontrast: 2 hours post injection, semi-quantitative evaluation, 6 mice per group
Description: Female athymic nu/nu mice were purchased from NCI (Frederick, Md.) at the age of 6 weeks. To generate tumor models, each mouse was injected subcutaneously with 2×10^6 MB-231 cells in 100 μl of culture media mixed with 100 μl of BD MATRIGEL, a solubulized basement membrane preparation extracted from EHS mouse sarcoma, in the flank region. Magnetic resonance imaging and photodynamic therapy studies were carried out at an average tumor size of 25-40 mm^3.
MR imaging was performed on a Siemens Trio 3T MRI scanner. The animals were anesthetized by intra-peritoneal or intra-muscular injection of the anesthetic (mixture of ketamine—80 mg/kg body weight and xylazine—12 mg/kg body weight).
For imaging purposes, the animals were placed in the human wrist coil and pre-contrast images (prior to the injection of the polymer chelate system containing the drug and the contrast agent) were obtained using a 3D FLASH (Fast Low Angle Shot) sequence.
After obtaining the pre-contrast images, the macromolecular complexes were injected at a dose of 0.09 mmol Gd/kg body weight and 6 mg/kg of Mce6 by tail vein injection. Image acquisition was set at 5, 30, 60, 120 minutes and 24 hours post injection. Animal imaging was performed using the multi-phase T1 weighted sequence. The repetition time was about 6 milliseconds to 2 milliseconds, respectively; consistent with the 4 to 8 cm FIV (field of view) and 0.5 mm slice thickness chosen for each animal. The imaging volume was acquired before injection and in rapid succession after injection. Each acquisition required about 30 seconds.
MR imaging. […] FIG. 7 and FIG. 8 show 2D coronal MR images through tumor and heart respectively. The upper panel of FIG. 7 represents mice with Pol1 and the lower panel upper represents mice with Pol2. The upper panel of FIG. 8 represents mice with Pol1 and the lower panel represents mice with Pol2. […] The higher signal in heart may be due to high molecular weight fractions of the control polymer.
Increase in Signal intensity of tumor for both groups as compared to precontrast at 2 hours is 100%. Signal intensity at 18 hours post injection was at least 30% higher than precontrast for both Pol1 and Pol2. Quantitative evaluation of signal intensities using IDL was performed to corroborate the data obtained from semi-quantitative analysis.

[3] = tested on: MDA-MB-231 human breast carcinoma xenograft tumor; assay: Efficiency of photodynamic therapy (650 nm laser irradiation of tumor); type: in vivo, female athymic nu/nu mice; details: for Tumor volume after photodynamic therapy: FIG. 11, irradiation 650 nm, 6 mice per group
Description: Molecular weight determination was carried out by Size Exclusion Chromatography (SEC) on an AKTA FPLC system with a Superdex 200/Superose 6 column equipped with UV and refractive index detectors (Amersham Biosciences Corp., Piscataway, N.J.). The FPLC columns were calibrated with poly[N-(2-hydroxypropyl)methacrylamide] standards. ^1H NMR spectra were acquired on a Varian INOVA 400 at 400 MHz at 25° C. ESI-MS spectra were acquired on a PE Sciex API III Mass Spectrometer at the University of Utah Mass Spectrometry and Proteonomic Core Facility. Meso chlorin content was determined on Cary Win UV-Vis spectrometer. Gd content was determined using Inductively Coupled argon Plasma-Optical Emission Spectrometer (ICP-OES) (Perkin Elmer, Norwalk, Conn., Optima 3100XL). T1 relaxivity measurements for the final conjugates were acquired on a Siemens Trio 3T MRI scanner using standard inversion recovery sequence. Photodynamic therapy was carried out via Diode Odyssey laser (650nm) (CAO Group, UT).
Female athymic nu/nu mice were purchased from NCI (Frederick, Md.) at the age of 6 weeks. […] Magnetic resonance imaging and photodynamic therapy studies were carried out at an average tumor size of 25-40 mm^3.
Then the tumor was irradiated, 2 hours and 18 hours post-injection, using light of wavelength 650 nm (Denlaser) with an input of 220 mW/cm^2 energy and 0.5 mm aperture for irradiation. The time of irradiation was 15 minutes. The mice were then kept away from direct light to avoid extraneous irradiation and the reduction in tumor volume was measured.
Efficiency of Photodynamic therapy.

| Substance | Relaxivity [1] [mM − 1 sec − 1] | Contrast in all tissues including tumor, heart and liver compared to pre-contrast [2] | Increase in signal intensity of tumor as compared to precontrast [2] [%] | Mice surviving for the time period of the experiment ([3]; 90 days, group of 6 mice) | Tumor volume after photodynamic therapy [3] | Mice with tumors larger than 10% of the body weight, sacrificed ([3]; out of 6 mice in the group) |
| --- | --- | --- | --- | --- | --- | --- |
| Gd (III)-DOTA-linker-PLGA-Mce6 [Pol1] | 8.46 | increased contrast | 100 | 4 out of 6 | reduction in tumor volume or slowed tumor growth |  |
| Gd (III)-DOTA-linker-PLGA [Pol2] | 8.33 | increased contrast | 100 |  | rapid increase in tumors | 5 |
